In patent publication US20060057109A1 (priority 2002, published 2006):
Read-outs that look alike come from different tables or passages of the source.

Experiments:
[1] = test system: caspase 8 and caspase 9 in CPA-treated 9L/P450 cells; experiment: Caspase 8 and caspase 9 activity in extracts of CPA-treated cells; format: cell-based, rat; conditions: IAP expressed by retroviral transduction, cells treated with 1 mM CPA
Description: 9L/P450 cells were infected with retrovirus encoding the IAPs p35 or Survivin. […] Shown in FIG. 1B are the caspase 8 and caspase 9 activities of the individual cell lines (mean+/−half the range for n=2 separate experiments).
Caspase Activity Measurements: Caspase activities were assayed as described previously (Schwartz and Waxman, Mol Pharmacol. 60:1268-1279. (2001)). […] Floating and attached cells were collected, pooled, dissolved in lysis buffer (10 mM Hepes buffer (pH 7.4) containing 2 mM EDTA, 0.1% CHAPS detergent, 5 mM DTT, 350 ng/ml PMSF, 10 ng/ml pepstatin A, 10 ng/ml aprotinin, and 20 ng/ml leupeptin) and then subjected to three freeze-thaw cycles. Lysates were spun and the supernatant (cell extract) was assayed for caspase 3, 8 and 9 activities by incubation with caspase form-selective substrates: Ac-DEVD-AMC (Biomol; cat # P-411) for caspase 3 (Talanian et al., J Biol. Chem. 272:9677-9682 (1997); Thomberry et al., J Biol. Chem. 272:17907-17911 (1997)), LETD-AFC (BioRad; cat# 170-3186) for caspase 8 and Ac-LEHD-AFC (BioRad; cat# 170-3190) for caspase 9.

[2] = test system: 9L/P450 cells
[3] = test system: 9L/P450 cells; remark: listed apart in the source
[4] = test system: 9L/LacZ bystander cells; experiment: Bystander cytotoxicity, colony formation assay; format: cell-based, rat
Description: The cytotoxicity conferred by 9L/P450 and 9L/P450/p35-9 cells on 9L/LacZ bystander cells was assayed using one of two protocols. […] Following this drug treatment cell survival was determined for each of the three cell lines (9L/P450, 9L/P450/p35-9 and 9L/LacZ) using a colony formation assay. In the experiment shown in FIGS. 6A and 6B (protocol 1) the 9L/LacZ bystander cells were plated on top of the 9L/P450 or 9L/P450/p35-9 cells, enabling the two cell populations to be in direct cell-cell contact. […]
Bystander Experiments. […] The cells were then grown in drug-free media for an additional 16 hr (i.e., 24 hr from the start of the second drug treatment), at which point the cells were trypsinized, collected, counted and replated at various densities in 6 well plates to allow for the growth of individual colonies, as follows: Drug-free control cells were replated in duplicate at 100, 150 and 250 cells/well. […] LacZ-positive colonies containing≧50 cells were counted. Cells were then re-stained with crystal violet and the total number of colonies was determined. The number of 9L/P450 or 9L/P450/p35-9 colonies on each plate was then calculated by subtracting number of the Lac Z-positive colonies from each sample. The colony efficiency (number of colonies/number of cells seeded) was then calculated for each treatment group. […]

[5] = test system: 9L/P450 cells; conditions: 1 × 8 hr 1 mM CPA
[6] = test system: 9L/P450/p35-9 cells; experiment: Colony formation assay after CPA treatment; format: cell-based, rat; conditions: 1 × 8 hr 1 mM CPA
Source text: Relative colony formation activities are shown in parenthesis.

[7] = test system: 9L/P450/p35-9 cells
Description: Cells were then cultured for up to 17 days following the initial drug treatment. […] Cells remaining on the plates at each indicated time point were stained with crystal violet. Data shown are mean+/−half the range for A595 values n=2 samples at each time point.
Growth Inhibition Assay: 9L/P450 and 9L/P450-derived cells lines were plated at 1.5×10^5 cells per well in 12 well dishes in 1.5 ml media unless indicated otherwise. […] Cells remaining on the plate at the indicated times were washed twice with cold PBS and then stained with crystal violet solution, as described previously (Schwartz and Waxman, Mol Pharmacol. 60:1268-1279. (2001)). The stain was eluted from the cells and the absorbance read at 595 nm to determine the relative protein content of each sample (Jounaidi et al., Cancer Res. 58:4391-4401 (1998)).

[8] = human, in vivo; cited from earlier work
[9] = three 8 hr treatments with 1 mM CPA

hIAP2: human IAP (inhibitor of apoptosis), myc-tagged cDNA, expressed by retroviral transduction
inhibition of caspase activity [1]: less effective caspase inhibition

CCCCS(=N)(=O)CCC(N)C(=O)O (stereo not shown) [BSO, buthionine sulfoximine]
decrease in the cell's capacity to produce and release 4-OH-CPA into the culture media [2]: 86%
effect of BSO pretreatment on cell growth [3]: no effect on cell growth
cell survival ([3]; BSO pretreatment (50 μM for 24 hr), then 1 mM CPA for 72 hr): 13%

O=P1(N(CCCl)CCCl)NCCCO1 (stereo not shown) [CPA, cyclophosphamide]
bystander cell killing ([4]; co-cultured with 9L/P450/p35-9 cells across a permeable membrane, second 8 hr CPA treatment): 70-80%
bystander cell killing ([4]; co-cultured with CPA-pretreated 9L/P450 cells across a permeable membrane, second CPA treatment): little or no bystander cell killing
Relative colony formation activity (in parenthesis) ([5]; No Drug = 100): 1.1 ± 0.5
Colonies per 10,000 cells ([5]; mean ± SD n=3): 77
Relative colony formation activity (in parenthesis) ([6]; No Drug = 100): 2.9 ± 0.9
Colonies per 10,000 cells ([6]; mean ± SD n=3): 150 ± 49
time to death of cells ([7]; 1 mM CPA continuously): 8 days
cell killing ([7]; single 8 hr CPA treatment): not sufficient to kill
day by which all cells died [7, 9]: ≤ 17 days
time to death of cells ([3]; 1 mM CPA continuously): 3 to 4 days
cellular response to CPA in the absence of p35 ([3]; 1 mM CPA for 72 hr): cytotoxic response
cell survival ([3]; 1 mM CPA for 72 hr, without BSO): 62%
cell killing ([3]; single 8 hr CPA treatment): not sufficient to kill
day by which all cells died [3, 9]: 6 to 9 days
half-life [8]: 8 h
